Assay results: patent US20140315972A1, “RS)-2-(2-oxo-4-phenylpyrrolidin-1-yl)acetamide compound having modulatory activity with a commensurate effect, pharmaceutical substance (variants) and its application, composition (variants) thereof” (priority 2011, published 2014)
Marks after values point to notes of the source that are not given here.

Legend:
rats [1] = test: Formalin induced edema, topical application; assay type: in vivo
Experimental: To identify and assess the anti-inflammatory action of Phenotropil, a standard technique was used; the carrageenan-induced paw edema in rats (Winter C. et al, 1962). Phenotropil at a dose of 100 mg/kg was administered intragastrically 60 minutes before carrageenan. Control animals received distilled water. Additionally, the topical application by method of formalin induced edema was investigated (subplantar administration of 0.1 ml of 2% formalin solution). Phenotropil for topical use was prepared (1:1) on the standard ointment base carrier at 100 mg/kg of body weight for each animal (150-220 g). The preparation was rubbed in the leg and a gauze patch was applied for 2 hours and 1 hour before the induction of inflammation.

rats [2] = test: Scopolamine-induced CRPA amnesia, preventive and therapeutic use, adult male rats; assay type: in vivo
From the text: These findings are of great importance. In clinic, medications have to be prescribed more often already in the midst of disorders.

cats = assay type: in vivo; settings: anesthetized cats; single i.v.; 100 mg/kg (title)
women = test: Migraine attacks, intranasal drops; assay type: in vivo, human
Experimental: Table 27 presents the results of studies in women (22-35 years) diagnosed with migraine without aura (simple migraine)—5 subjects, and migraine with aura (classic migraine)—5 subjects. Phenotropil as used as nasal drops (0.1% sterile solution), 10 drops three times a day for 7 days for the purpose of relief and prevention of migraine attacks at onset of prodromal phenomena and aura episodes. 5 drops of the solution were administered into each nostril. One drop of the 0.1% standard solution contained 0.05 mg of Phenotropil.

rats [3] = test: Hypobaric hypoxia in 7-day-old rats; assay type: in vivo
rats [4] = test: Acute toxicity, single intraperitoneal injection in rats aged 30-35 days; assay type: in vivo
Experimental: (§1) Tables 2, 2.1 and 2.2 present the results of acute toxicity studies of the Compounds with active substance content in at least white outbred male mice (body weight 18-24 g) and white outbred rats 30-35 days of age, of both sexes with a single dose. Calculation of toxic doses was made using the Wilcoxon and Litchfield method. Observations were made over 24 hours and 14 days after a single dose.
(§2) LD50 in rat pups after intragastric administration was not found. Intragastric administration to rat pups of doses of more than 1000 mg/kg is technically impossible due to the small volume of the stomach (Table 2.2).

[5] = as above; assay type: in vivo; settings: both sexes, white outbred, rat, in vivo, ip; rats 30-35 days; single i.p.
Experimental: as §1, §2

rats [6] = test: Acute toxicity, single intragastric administration in immature rats; assay type: in vivo; settings: for Dead/total number: rats 30-35 days
Experimental: as §1, §2

mice = test: Hot plate test (pain sensitivity); assay type: in vivo; settings: for Latent period (hot plate): mice
From the text: The analgesic effect is present at all studied doses and increases with increasing dose.

[7] = 100.0 mg/kg before training + scopolamine
[8] = 100.0 mg/kg during training and scopolamine
[9] = 0.1% nasal drops, 10 drops three times a day 7 days
[10] = migraine attacks, humans, intranasally 0.5 mg × 3 times per day

For `NC(=O)CN1CC(c2ccccc2)CC1=O` (racemic) [Compound 1, (RS)-2-(2-oxo-4-phenylpyrrolidine-1-yl)acetamide], the “shortening of inflammation vs control” value (rats [1]; topical 100 mg/kg before formalin) was 64.5%, the “Effect on formalin edema vs control (100)” value (rats [1]; topical 100 mg/kg, 2 hours before formalin) was −79.9% and the “% of animals that did not enter into the dark chamber” value (rats [2]; [7]) was 80% *. The “LP Pre-training” value (rats [2]; [7]) was 17.0 ± 2.9, the “LP of the training reproduction” value (rats [2]; [7]) was 94.1 ± 8.7 and the “Number of animals that did not enter into the dark chamber” value (rats [2]; [7]) was 16/20. For the same molecule, the “Time spent in the dark chamber” value (rats [2]; [7]) was 49.9 ± 6.9, the “% of animals that did not enter into the dark chamber” value (rats [2]; [8]) was 70% * and the “LP Pre-training” value (rats [2]; [8]) was 18.4 ± 3.3. For the same molecule, the “LP of the training reproduction” value (rats [2]; [8]) was 91.1 ± 10.1, the “Number of animals that did not enter into the dark chamber” value (rats [2]; [8]) was 14/20 and the “Time spent in the dark chamber” value (rats [2]; [8]) was 63.4 ± 12.5. For the same molecule, the “CCA blood flow (1-2 min) vs background” value (cats) was “+26.0%”, the “SBP (1-2 min) vs background” value (cats) was −24.0% and the “SBP (at 4 min) vs background” value (cats) was “+14%”. The “VPR (at 5 min) vs background” value (cats) was −46.0%, the “patients (of 10) with headaches and their duration decreased significantly” value (women; [9]) was 3 and the “patients (of 10) with no effect” value (women; [9]) was 2. For the same molecule, the “patients (of 10) with prodrome and aura completely stopped without headache attacks” value (women; [9]) was 5, the “Efficacy: % of subjects with no effect” value (women; [10]) was 20% and the “Efficacy: % of subjects with partial effect” value (women; [10]) was 30%. The “Efficacy: subjects with 100% efficacy” value (women; [10]) was 5/10 - 100% efficacy ^, the “Efficacy: subjects with no effect” value (women; [10]) was 2/10 and the “Efficacy: subjects with partial effect” value (women; [10]) was 3/10. The “altitude at which tremor was displayed” value (rats [3]; 300 mg/kg) was 11 thousand meters, the “altitude at which tremor was observed” value (rats [3]; 50 and 100 mg/kg (control 7,000 m)) was 10,000 m and the “Duration of life of animals” value (rats [3]; ascension to 11000 m, 50 mg/kg) was 6.9 ± 0.7 min. For the same molecule, the “Duration of life of animals” value (rats [3]; ascension to 11000 m, 100 mg/kg) was 6.9 ± 0.7 min, the “Duration of life of animals” value (rats [3]; ascension to 12000 m, 300 mg/kg) was 7.3 ± 0.7 min and the “tremor during stay at 11,000 meters for 2 hours” value (rats [3]; control 11 episodes) was “tremor was observed only once”. The LD16 (rats [4]; rats 30-35 days, single i.p.) was “LD16 = 906.7 mg/kg”, the LD84 (rats [4]; rats 30-35 days, single i.p.) was “LD84 = 1159.0 mg/kg” and the Dead/total number (rats [4]; rats 30-35 days, single i.p. 800 mg/kg) was 0/10. For the same molecule, the Dead/total number (rats [4]; rats 30-35 days, single i.p. 1000 mg/kg) was 4/10, the Dead/total number (rats [4]; rats 30-35 days, single i.p. 1100 mg/kg) was 9/10 and the Dead/total number (rats [4]; rats 30-35 days, single i.p. 1200 mg/kg) was 9/10. For the same molecule, the Dead/total number (rats [4]; rats 30-35 days, single i.p. 1500 mg/kg) was 10/10, the “% of dead rat pups” value (rats [4]; single i.p. 800 mg/kg) was 0% and the “% of dead rat pups” value (rats [4]; single i.p. 1000 mg/kg) was 40%. The “% of dead rat pups” value (rats [4]; single i.p. 1100 mg/kg) was 90%, the “% of dead rat pups” value (rats [4]; single i.p. 1200 mg/kg) was 90% and the “% of dead rat pups” value (rats [4]; single i.p. 1500 mg/kg) was 100%. The LD50 at 14 days [5] was 1030 mg/kg, the Dead/total number (rats [6]; single intragastric 800 mg/kg) was 0/10 and the Dead/total number (rats [6]; single intragastric 1000 mg/kg) was 0/10. The “% of dead rat pups” value (rats [6]; single intragastric 800 mg/kg) was 0%, the “% of dead rat pups” value (rats [6]; single intragastric 1000 mg/kg) was 0% and the “reduction of pain sensitivity” value (mice; 50 mg/kg, 30 minutes) was 14.3%. For the same molecule, the “reduction of pain sensitivity” value (mice; 50 mg/kg, 60 minutes) was 8.3%, the “reduction of pain sensitivity” value (mice; 50 mg/kg, 120 minutes) was 10.8% and the “reduction of pain sensitivity” value (mice; 100.0 mg/kg, 30 minutes) was 12.4%. The “reduction of pain sensitivity” value (mice; 100.0 mg/kg, 60 minutes) was 12.5%, the “reduction of pain sensitivity” value (mice; 100.0 mg/kg, 120 minutes) was 31.5% and the “reduction of pain sensitivity” value (mice; 300.0 mg/kg, 30 minutes) was 71.4%. For the same molecule, the “reduction of pain sensitivity” value (mice; 300.0 mg/kg, 60 minutes) was 61.5%, the “Latent period (hot plate)” value (mice; 50.0 mg/kg i.p., 30 min) was 12.0 ± 1.1 min and the “Latent period (hot plate)” value (mice; 50.0 mg/kg i.p., 60 min) was 11.7 ± 0.7 min. For the same molecule, the “Latent period (hot plate)” value (mice; 50.0 mg/kg i.p., 120 min) was 12.3 ± 0.8 min, the “Latent period (hot plate)” value (mice; 100.0 mg/kg i.p., 30 min) was 11.8 ± 0.7^ min and the “Latent period (hot plate)” value (mice; 100.0 mg/kg i.p., 60 min) was 13.5 ± 1.4 min. The “Latent period (hot plate)” value (mice; 100.0 mg/kg i.p., 120 min) was 14.6 ± 1.4 min, the “Latent period (hot plate)” value (mice; 300.0 mg/kg i.p., 30 min) was 18.0 ± 1.0 min and the “Latent period (hot plate)” value (mice; 300.0 mg/kg i.p., 60 min) was 18.2 ± 0.8 min. The “Latent period (hot plate)” value (mice; 300.0 mg/kg i.p., 120 min) was 22.2 ± 1.0 min.
